Measurements from ChEMBL document CHEMBL1138099, “Synthesis and structure-activity studies of antibacterial oxazolidinones containing dihydrothiopyran or dihydrothiazine C-rings” (2006).
In brackets after ≈: the same amount, converted by molar mass.

Columns and labels:
Assay type in all cases: functional
Staphylococcus aureus = test: Antimicrobial activity against Staphylococcus aureus
Streptococcus pneumoniae = test: Antimicrobial activity against Streptococcus pneumoniae
Enterococcus faecium = test: Antimicrobial activity against Enterococcus faecium UC12712
Haemophilus influenzae = test: Antimicrobial activity against Haemophilus influenzae
Moraxella catarrhalis = test: Antimicrobial activity against Moraxella catarrhalis

Compound | MIC (Staphylococcus aureus) [µg/mL] | MIC (Streptococcus pneumoniae) [µg/mL] | MIC (Enterococcus faecium) [µg/mL] | MIC (Haemophilus influenzae) [µg/mL] | MIC (Moraxella catarrhalis) [µg/mL]
CC(=O)NC[C@H]1CN(c2ccc(C3CCS(=O)(=O)CC3)c(F)c2)C(=O)O1 | 2 (≈ 5.2 µM) | 0.5 (≈ 1.3 µM) | 2 (≈ 5.2 µM) | 4 (≈ 10.4 µM) | 2 (≈ 5.2 µM)
CC(=O)NC[C@H]1CN(c2ccc(C3C=CS(=O)(=O)CC3)c(F)c2)C(=O)O1 (stereo partly drawn) | 4 (≈ 10.5 µM) | 1 (≈ 2.61 µM) | 2 (≈ 5.23 µM) | 8 (≈ 20.9 µM) | 2 (≈ 5.23 µM)
O=C(NC[C@H]1CN(c2ccc(C3C=CS(=O)(=O)CC3)c(F)c2)C(=O)O1)C(Cl)Cl (stereo partly drawn) | 2 (≈ 4.43 µM) | 0.5 (≈ 1.11 µM) | 2 (≈ 4.43 µM) | 4 (≈ 8.86 µM) | 2 (≈ 4.43 µM)
O=C1O[C@@H](C/N=C(/S)C(F)F)CN1c1ccc(C2C=CS(=O)(=O)CC2)cc1 (stereo partly drawn) | 2 (≈ 4.8 µM) | 0.5 (≈ 1.2 µM) | 2 (≈ 4.8 µM) | 8 (≈ 19.2 µM) | 4 (≈ 9.6 µM)
O=C1O[C@@H](C/N=C(/S)C(F)F)CN1c1ccc(N2C=CS(=O)(=O)CC2)cc1 | 2 (≈ 4.79 µM) | 0.5 (≈ 1.2 µM) | 1 (≈ 2.4 µM) | 4 (≈ 9.58 µM) | 4 (≈ 9.58 µM)
O=C(NC[C@H]1CN(c2ccc(C3C=CS(=O)(=O)CC3)cc2)C(=O)O1)C(F)F (stereo partly drawn) | 4 (≈ 9.99 µM) | 1 (≈ 2.5 µM) | 4 (≈ 9.99 µM) | 8 (≈ 20 µM) | 4 (≈ 9.99 µM)
O=C1O[C@@H](C/N=C(/S)C(F)F)CN1c1ccc(N2C=CS(=O)(=O)CC2)c(F)c1 | 1 (≈ 2.3 µM) | 0.5 (≈ 1.15 µM) | 1 (≈ 2.3 µM) | 4 (≈ 9.19 µM) | 4 (≈ 9.19 µM)
O=C1O[C@@H](C/N=C(/S)C(F)F)CN1c1cc(F)c(N2C=CS(=O)(=O)CC2)c(F)c1 | 1 (≈ 2.21 µM) | 0.25 (≈ 0.551 µM) | 0.25 (≈ 0.551 µM) | 4 (≈ 8.82 µM) | 2 (≈ 4.41 µM)
O=C(NC[C@H]1CN(c2cc(F)c(N3C=CS(=O)(=O)CC3)c(F)c2)C(=O)O1)C(F)F | 4 (≈ 9.15 µM) | 0.5 (≈ 1.14 µM) | 1 (≈ 2.29 µM) | 4 (≈ 9.15 µM) | 4 (≈ 9.15 µM)
CC(=O)NC[C@H]1CN(c2ccc(C3C=CS(=O)(=O)CC3)cc2)C(=O)O1 (stereo partly drawn) | 4 (≈ 11 µM) | 1 (≈ 2.74 µM) | 4 (≈ 11 µM) | 8 (≈ 22 µM) | 8 (≈ 22 µM)
CC(=O)NC[C@H]1CN(c2cc(F)c(C3C=CS(=O)(=O)CC3)c(F)c2)C(=O)O1 (stereo partly drawn) | 4 (≈ 9.99 µM) | 1 (≈ 2.5 µM) | 2 (≈ 4.99 µM) | 8 (≈ 20 µM) | 8 (≈ 20 µM)
O=C(NC[C@H]1CN(c2ccc(C3C=CS(=O)(=O)CC3)c(F)c2)C(=O)O1)C(F)F (stereo partly drawn) | 2 (≈ 4.78 µM) | 1 (≈ 2.39 µM) | 2 (≈ 4.78 µM) | 4 (≈ 9.56 µM) | 4 (≈ 9.56 µM)
O=C1O[C@@H](C/N=C(/S)C(F)F)CN1c1cc(F)c(C2C=CS(=O)(=O)CC2)c(F)c1 (stereo partly drawn) | 1 (≈ 2.21 µM) | 0.5 (≈ 1.11 µM) | 2 (≈ 4.42 µM) | 16 (≈ 35.4 µM) | 4 (≈ 8.84 µM)
O=C(NC[C@H]1CN(c2ccc(N3C=CS(=O)(=O)CC3)cc2)C(=O)O1)C(Cl)Cl | 4 (≈ 9.21 µM) | 0.5 (≈ 1.15 µM) | 2 (≈ 4.61 µM) | 2 (≈ 4.61 µM) | 2 (≈ 4.61 µM)
CC(=O)NC[C@H]1CN(c2ccc(N3C=CS(=O)(=O)CC3)c(F)c2)C(=O)O1 | 4 (≈ 10.4 µM) | 0.5 (≈ 1.3 µM) | 2 (≈ 5.22 µM) | 4 (≈ 10.4 µM) | 2 (≈ 5.22 µM)
O=C(NC[C@H]1CN(c2cc(F)c(C3C=CS(=O)(=O)CC3)c(F)c2)C(=O)O1)C(F)F (stereo partly drawn) | 2 (≈ 4.58 µM) | 1 (≈ 2.29 µM) | 2 (≈ 4.58 µM) | 8 (≈ 18.3 µM) | 8 (≈ 18.3 µM)
O=C(NC[C@H]1CN(c2ccc(N3C=CS(=O)(=O)CC3)c(F)c2)C(=O)O1)C(F)F | 4 (≈ 9.54 µM) | 0.5 (≈ 1.19 µM) | 2 (≈ 4.77 µM) | 4 (≈ 9.54 µM) | 4 (≈ 9.54 µM)
CC(=O)NC[C@H]1CN(c2cc(F)c(N3C=CS(=O)(=O)CC3)c(F)c2)C(=O)O1 | 2 (≈ 4.98 µM) | 0.5 (≈ 1.25 µM) | 1 (≈ 2.49 µM) | 8 (≈ 19.9 µM) | 4 (≈ 9.97 µM)
CC(=O)NC[C@H]1CN(c2cc(F)c(N3CCS(=O)(=O)CC3)c(F)c2)C(=O)O1 | 2 (≈ 4.96 µM) | 1 (≈ 2.48 µM) | 2 (≈ 4.96 µM) | 4 (≈ 9.92 µM) | 4 (≈ 9.92 µM)
O=C(NC[C@H]1CN(c2cc(F)c(C3C=CS(=O)(=O)CC3)c(F)c2)C(=O)O1)C(Cl)Cl (stereo partly drawn) | 2 (≈ 4.26 µM) | 0.5 (≈ 1.07 µM) | 2 (≈ 4.26 µM) | 8 (≈ 17 µM) | 4 (≈ 8.52 µM)
O=C(NC[C@H]1CN(c2ccc(N3C=CS(=O)(=O)CC3)cc2)C(=O)O1)C(F)F | 4 (≈ 9.97 µM) | 1 (≈ 2.49 µM) | 2 (≈ 4.98 µM) | 8 (≈ 19.9 µM) | 4 (≈ 9.97 µM)
O=C(NC[C@H]1CN(c2ccc(C3C=CS(=O)(=O)CC3)cc2)C(=O)O1)C(Cl)Cl (stereo partly drawn) | 2 (≈ 4.62 µM) | 0.5 (≈ 1.15 µM) | 2 (≈ 4.62 µM) | 4 (≈ 9.23 µM) | 4 (≈ 9.23 µM)
O=C(NC[C@H]1CN(c2cc(F)c(N3C=CS(=O)(=O)CC3)c(F)c2)C(=O)O1)C(Cl)Cl | 4 (≈ 8.51 µM) | 0.5 (≈ 1.06 µM) | 1 (≈ 2.13 µM) | 4 (≈ 8.51 µM) | 4 (≈ 8.51 µM)
O=C1O[C@@H](C/N=C(/S)C(F)F)CN1c1ccc(C2C=CS(=O)(=O)CC2)c(F)c1 (stereo partly drawn) | 2 (≈ 4.6 µM) | 0.5 (≈ 1.15 µM) | 1 (≈ 2.3 µM) | 8 (≈ 18.4 µM) | 2 (≈ 4.6 µM)
O=C(NC[C@H]1CN(c2ccc(N3C=CS(=O)(=O)CC3)c(F)c2)C(=O)O1)C(Cl)Cl | 2 (≈ 4.42 µM) | 0.5 (≈ 1.11 µM) | 1 (≈ 2.21 µM) | 2 (≈ 4.42 µM) | 2 (≈ 4.42 µM)
CC(=O)NC[C@H]1CN(c2ccc(N3CCOCC3)c(F)c2)C(=O)O1 [LINEZOLID] |  |  | 4 (≈ 11.9 µM) | 16 (≈ 47.4 µM) | 8 (≈ 23.7 µM)
